From patent publication US9868692B2, “Compounds and compositions for intracellular delivery of therapeutic agents” (MODERNATX, Inc., priority 2015, dated 2018)

Tests used:
[1] = Particle size, polydispersity index (and zeta potential) of nanoparticle compositions, Zetasizer Nano ZS; format: physicochemical; conditions: Table 1A formulations
From the text: Nanoparticle compositions may be characterized by a variety of methods. For example, microscopy (e.g., transmission electron microscopy or scanning electron microscopy) may be used to examine the morphology and size distribution of a nanoparticle composition. Dynamic light scattering or potentiometry (e.g., potentiometric titrations) may be used to measure zeta potentials. Dynamic light scattering may also be utilized to determine particle sizes. Instruments such as the Zetasizer Nano ZS (Malvern Instruments Ltd, Malvern, Worcestershire, UK) may also be used to measure multiple characteristics of a nanoparticle composition, such as particle size, polydispersity index, and zeta potential.
A Zetasizer Nano ZS (Malvern Instruments Ltd, Malvern, Worcestershire, UK) can be used to determine the particle size, the polydispersity index (PDI) and the zeta potential of the nanoparticle compositions in 1×PBS in determining particle size and 15 mM PBS in determining zeta potential.

[2] = Encapsulation efficiency of RNA, QUANT-IT RIBOGREEN RNA assay; format: physicochemical; conditions: Table 1A formulations
From the text: The efficiency of encapsulation of a therapeutic and/or prophylactic describes the amount of therapeutic and/or prophylactic that is encapsulated or otherwise associated with a nanoparticle composition after preparation, relative to the initial amount provided. The encapsulation efficiency is desirably high (e.g., close to 100%). The encapsulation efficiency may be measured, for example, by comparing the amount of therapeutic and/or prophylactic in a solution containing the nanoparticle composition before and after breaking up the nanoparticle composition with one or more organic solvents or detergents. Fluorescence may be used to measure the amount of free therapeutic and/or prophylactic (e.g., RNA) in a solution. For the nanoparticle compositions described herein, the encapsulation efficiency of a therapeutic and/or prophylactic may be at least 50%, for example 50%, 55%, 60%, 65%, 70%, 75%, 80%, 85%, 90%, 91%, 92%, 93%, 94%, 95%, 96%, 97%, 98%, 99%, or 100%. In some embodiments, the encapsulation efficiency may be at least 80%. In certain embodiments, the encapsulation efficiency may be at least 90%.
For nanoparticle compositions including an RNA, a QUANT-IT™ RIBOGREEN® RNA assay (Invitrogen Corporation Carlsbad, Calif.) can be used to evaluate the encapsulation of an RNA by the nanoparticle composition. The samples are diluted to a concentration of approximately 5 μg/mL in a TE buffer solution (10 mM Tris-HCl, 1 mM EDTA, pH 7.5). 50 μL of the diluted samples are transferred to a polystyrene 96 well plate and either 50 μL of TE buffer or 50 μL of a 2% Triton X-100 solution is added to the wells. The plate is incubated at a temperature of 37° C. for 15 minutes. The RIBOGREEN® reagent is diluted 1:100 in TE buffer, and 100 μL of this solution is added to each well. The fluorescence intensity can be measured using a fluorescence plate reader (Wallac Victor 1420 Multilablel Counter; Perkin Elmer, Waltham, Mass.) at an excitation wavelength of, for example, about 480 nm and an emission wavelength of, for example, about 520 nm. The fluorescence values of the reagent blank are subtracted from that of each of the samples and the percentage of free RNA is determined by dividing the fluorescence intensity of the intact sample (without addition of Triton X-100) by the fluorescence value of the disrupted sample (caused by the addition of Triton X-100).

[3] = Residual lipid level in liver of rats (UPLC-MS quantification); format: in vivo; conditions: rat, liver, iv, intravenous, 48 hours, read-out: Liver level
Description: (§1) To pre-weighed tissues, Milli-Q water was added (900 μL water per 100 mg tissue). Tissues were homogenized using an Omni probe homogenizer until uniform. 50 μL of samples and matrix calibration standards were aliquoted into a 96-well plate. 50 μL of blank matrix for matrix blanks and control blanks were aliquoted. 400 μL IS spiking solution were manually added to all samples except matrix blanks. 400 μL of 50:50 ACN:IPA were manually added to matrix blanks. The plate was covered and the samples vortexed and centrifuged for 5 minutes at >3000 rpm. 200 μL of the samples were transferred into a clean 96-well plate for analysis. […] Detection was based on electrospray ionization (ESI) in positive mode using a Sciex API5500 Mass Spectrometer.
(§2) The expression of hEPO in rats intravenously administered a nanoparticle composition at a dose of 0.2 mpk or 2.0 mpk was measured at 6 hours. […] Liver and spleen levels represent the average values calculated for 3 rats in each group.
(§3) The expression of hEPO and lipid levels in the liver and spleen in rats intravenously administered a nanoparticle composition at a dose of 0.2 mpk was measured at various timepoints. […] Lipids were formulated according to the standard MC3 formulation described above.

[4] = Residual lipid level in spleen of rats (UPLC-MS quantification); format: in vivo; conditions: rat, iv, 48 hours, read-out: Spleen level
Description: as §1, §2, §3

[5] = Lipid clearance: % dose remaining in liver after administration of Luc formulations; format: in vivo, mice; conditions: Table 3D

PDI [1] | EE (%) [2] [%] | % Dose Remaining in Liver 6h ([5]; first column of this head) [%] | % Dose Remaining in Liver 6h ([5]; second column of this head) [%] | SMILES | also measured
 |  | <1 | <1 | CCCCCCCCCC(=O)OCCCCCCCN(CCO)CCCCCCCC(=O)OC(CCCCCCCC)CCCCCCCC [Compound 96, 7-((8-(Heptadecan-9-yloxy)-8-oxooctyl)(2-hydroxyethyl)amino)heptyl decanoate] | 
0.13 | 97.4 |  |  | CCCCCCCCCOC(=O)CCCCCCCN(CCCCCCCC(=O)OC(CCCCCCCC)CCCCCCCC)CCCNC(=O)N(C)C [Compound 110, Heptadecan-9-yl 8-((3-(3,3-dimethylureido)propyl)(8-(nonyloxy)-8-oxooctyl)amino)octanoate] | 
0.14 | 98.2 |  |  | CCCCCCCCCOC(=O)CCCCCCCN(CCCCCCCC(=O)OC(CCCCCCCC)CCCCCCCC)CCCNC(=S)N(C)C [Compound 111, Heptadecan-9-yl 8-((3-(3,3-dimethylthioureido)propyl)(8-(nonyloxy)-8-oxooctyl)amino)octanoate] | 
0.15 | 99 |  |  | CCCCCCCCCOC(=O)CCCCCCCN(CCCCCCCC(=O)OC(CCCCCCCC)CCCCCCCC)CCCNC(=S)NC [Compound 113, Heptadecan-9-yl 8-((3-(3-methylthioureido)propyl)(8-(nonyloxy)-8-oxooctyl)amino)octanoate] | 
0.12 | 98.24 |  |  | CCCCCCCCCOC(=O)CCCCCCCN(CCCCCCCC(=O)OC(CCCCCCCC)CCCCCCCC)CCCN/C(=C/[N+](=O)[O-])NC [Compound 170, Heptadecan-9-yl (E)-8-((3-((1-(methylamino)-2-nitrovinyl)amino)propyl)(8-(nonyloxy)-8-oxooctyl)amino)octanoate] | 

Second part, the compound before the results:

SMILES | PDI [1] | EE (%) [2] [%] | % Dose Remaining in Liver 6h ([5]; first column of this head) [%] | % Dose Remaining in Liver 6h ([5]; second column of this head) [%] | also measured
CCCCCCCCC(CC)OC(=O)CCCCCCCN(CCO)CCCCCCCC(=O)OC(CCCCCCCC)CCCCCCCC (stereo not drawn) [Compound 49, heptadecan-9-yl 8-((2-hydroxyethyl)(8-oxo-8-(undecan-3-yloxy)octyl)amino)octanoate] | 0.110 | 96.86 |  |  | concentration at 48 h ([3]; 0.2 mg/kg, 0.2 mpk): 6490 ng/g; concentration at 48 h ([3]; 2 mg/kg, 2 mpk): 61400 ng/g; concentration at 48 h ([4]; 0.2 mg/kg, 0.2 mpk): 0.36; concentration at 48 h ([4]; 2 mg/kg, 2 mpk): 0.37
CCCCCCCCC(CC)OC(=O)CCCN(CCO)CCCCCCCC(=O)OC(CCCCCCCC)CCCCCCCC (stereo not drawn) [Compound 72, Heptadecan-9-yl 8-((2-hydroxyethyl)(4-oxo-4-(undecan-3-yloxy)butyl)amino)octanoate] | 0.11 | 97.3 |  |  | 
CCCCCCCCC(CC)OC(=O)CCCCCN(CCO)CCCCCCCC(=O)OC(CCCCCCCC)CCCCCCCC (stereo not drawn) [Compound 75, Heptadecan-9-yl 8-((2-hydroxyethyl)(6-oxo-6-(undecan-3-yloxy)hexyl)amino)octanoate] | 0.10 | 98.1 |  |  | 
CCCCCCCCC(CCCCCCCC)OC(=O)CCCCCCCN(CCO)CCCCCC(=O)OC(CCCCCCCC)C1CC1 (stereo not drawn) [Compound 128, Heptadecan-9-yl 8-((6-((1-cyclopropylnonyl)oxy)-6-oxohexyl)(2-hydroxyethyl)amino)octanoate] | 0.14 | 98.2 |  |  | 
CCCCCCCCC(CCCCCCCC)OC(=O)CCCCCCCN(CCO)CCCCCCCC(=O)OCC(CCCCCCC)OC (stereo not drawn) [Compound 148, Heptadecan-9-yl 8-((2-hydroxyethyl)(8-((2-methoxynonyl)oxy)-8-oxooctyl)amino)octanoate] |  |  | <1 | <1 | 
CCCCCCCCC(CCCCCCCC)OC(=O)CCCCCCCN(C)CCCCCCCCCCCC(=O)OCCCCC [Compound 150, Pentyl 12-((8-(heptadecan-9-yloxy)-8-oxooctyl)(methyl)amino)dodecanoate] |  |  | <1 | <1 | 
CCCCCCCCCC(=O)OCCCCCCCN(CCO)CCCCCCCOC(=O)C(CCCCCCCC)CCCCCCCC [Compound 151, 7-((7-(Decanoyloxy)heptyl)(2-hydroxyethyl)amino)heptyl 2-octyldecanoate] |  |  | <1 | <1 | 
CCCCCCCCCOC(=O)CCCCCCCN(CCO)CCCCCCCCCC(CCCCCCCC)CCCCCCCC [Compound 153, Nonyl 8-((2-hydroxyethyl)(10-octyloctadecyl)amino)octanoate] |  |  | <1 | <1 | 
CCCCCCCCCOC(=O)CCCCCCCN(CCCCCCCC(=O)OC(CCCCCCCC)CCCCCCCC)C(CO)CO [Compound 156, Heptadecan-9-yl 8-((1,3-dihydroxypropan-2-yl)(8-(nonyloxy)-8-oxooctyl)amino)octanoate] | 0.072 | 98.90 |  |  | 
CCCCCCCCCOC(=O)CCCCCCCN(CCCCCCCC(=O)OC(CCCCCCCC)CCCCCCCC)C(C)CO (stereo not drawn) [Compound 157, Heptadecan-9-yl 8-((1-hydroxypropan-2-yl)(8-(nonyloxy)-8-oxooctyl)amino)octanoate] | 0.096 |  | <1 | <1 | 
CCCCCCCCCOC(=O)CCCCCCCN(CCCCCCCC(=O)OC(CCCCCCCC)CCCCCCCC)CCCNc1c(N(C)C)c(=O)c1=O [Compound 169, Heptadecan-9-yl 8-((3-((2-(dimethylamino)-3,4-dioxocyclobut-1-en-1-yl)amino)propyl)(8-(nonyloxy)-8-oxooctyl)amino)octanoate] | 0.18 | 99.04 |  |  | 
CCCCCCCCCOC(=O)CCCCCCCN(CCCCCCCC(=O)OC(CCCCCCCC)CCCCCCCC)CCCN1C(=O)CNC1=O [Compound 174, Heptadecan-9-yl 8-((3-(2,5-dioxoimidazolidin-1-yl)propyl)(8-(nonyloxy)-8-oxooctyl)amino)octanoate] | 0.12 | 98.52 |  |  | 
